Experiments:
[1] = test system: preretinal neovascularization (NV); assay: Rat model of oxygen-induced retinopathy (OIR), single intravitreal injection; format: in vivo; details: for % Inhibition (vs. vehicle-injected eye) of preretinal NV / Median NV (clockhour score): 5 μl intravitreal injection; for % Inhibition (vs. vehicle-injected eye) of preretinal NV: Day 14/6
Excerpt: METHODS: Pregnant Sprague-Dawley rats were received at 14 days gestation and subsequently gave birth on Day 22±1 of gestation. Immediately following parturition, pups were pooled and randomized into separate litters (n=17 pups/litter), placed into separate shoebox cages inside oxygen delivery chamber, and subjected to an oxygen-exposure profile from Day 0-14 postpartum. Litters were then placed into room air from Day 14/0 through Day 14/6 (days 14-20 postpartum). Additionally on Day 14/0, each pup was randomly assigned as an oxygen-exposed control or into various treatment groups. For those randomized into an injection treatment group: one eye received a 5 μl intravitreal injection of 0.1%, 0.3%, 0.6%, or 1% RTKi and the contralateral eye received a 5 μl intravitreal injection of vehicle. At Day 14/6 (20 days postpartum), all animals in both studies were euthanized. Immediately following euthanasia, retinas from all rat pups were harvested, fixed in 10% neutral buffered formalin for 24 hours, subjected to ADPase staining, and fixed onto slides as whole mounts. Digital images were acquired from each retinal flat mount that was adequately prepared. Computerized image analysis was used to obtain a NV clockhour score from each readable sample. Each clockhour out of 12 total per retina was assessed for the presence or absence of preretinal NV. Statistical comparisons using median scores for NV clockhours from each treatment group were utilized in nonparametric analyses. Each noninjected pup represented one NV score by taking the average value of both eyes and was used in comparisons against each dosage group. Because the pups were randomly assigned and no difference was observed between oxygen-exposed control pups from all litters, the NV scores were combined for all treatment groups. P≦0.05 was considered statistically significant.

[2] = test system: preretinal neovascularization (NV); assay: Rat OIR model, oral gavage; format: in vivo
Description: Immediately following euthanasia, retinas from all rat pups were harvested, fixed in 10% neutral buffered formalin for 24 hours, subjected to ADPase staining, and fixed onto slides as whole mounts. Digital images were acquired from each retinal flat mount that was adequately prepared. Computerized image analysis was used to obtain a NV clockhour score from each readable sample. Each clockhour out of 12 total per retina was assessed for the presence or absence of preretinal NV. Statistical comparisons using median scores for NV clockhours from each treatment group were utilized in nonparametric analyses. Each noninjected pup represented one NV score by taking the average value of both eyes and was used in comparisons against each dosage group. Because the pups were randomly assigned and no difference was observed between oxygen-exposed control pups from all litters, the NV scores were combined for all treatment groups. P≦0.05 was considered statistically significant. METHODS: Pregnant Sprague-Dawley rats were received at 14 days gestation and subsequently gave birth on Day 22±1 of gestation. Immediately following parturition, pups were pooled and randomized into separate litters (n=17 pups/litter), placed into separate shoebox cages inside oxygen delivery chamber, and subjected to an oxygen-exposure profile from Day 0 to Day 14 postpartum. Litters were then placed into room air from Day 14/0 through Day 14/6 (days 14-20 postpartum). Additionally on Day 14/0, each pup was randomly assigned as oxygen-exposed controls, vehicle treated, or drug-treated at 1.5, 5, 10 mg/kg, p.o., BID. At Day 14/6 (20 days postpartum), all animals in both studies were euthanized and retina whole mounts were prepared as described in Example 1 above.

[3] = test system: laser-induced choroidal neovascularization (CNV); assay: Laser-induced choroidal neovascularization (CNV) in the mouse, prevention, intravitreal injection; format: in vivo
Description: (§1) METHODS: CNV was generated by laser-induced rupture of Bruch's membrane. Briefly, 4 to 5 week old male C57BL/6J mice were anesthetized using intraperitoneal administration of ketamine hydrochloride (100 mg/kg) and xylazine (5 mg/kg) and the pupils of both eyes dilated with topical ocular instillation of 1% tropicamide and 2.5% Mydfin®. One drop of topical cellulose (Gonioscopic®) was used to lubricate the cornea. A hand-held cover slip was applied to the cornea and used as a contact lens to aid visualization of the fundus. Three to four retinal burns were placed in randomly assigned eye (right or left eye for each mouse) using the Alcon 532 nm EyeLite laser with a slit lamp delivery system. The laser burns were used to generate a rupture in Bruch's membrane, which was indicated opthalmoscopically by the formation of a bubble under the retina. Only mice with laser burns that produced three bubbles per eye were included in the study. Burns were typically placed at the 3, 6, 9 or 12 o'clock positions in the posterior pole of the retina, avoiding the branch retinal arteries and veins.
Each mouse was randomly assigned into one of the following treatment groups: noninjected controls, sham-injected controls, vehicle-injected mice, or one of three RTKi-injected groups. […]

[4] = test system: existing laser-induced choroidal neovascularization (CNV); assay: Regression of existing laser-induced CNV in the mouse, intravitreal injection at 7 days post-laser; format: in vivo
Description: as §1, with “veins. […]” for “veins.”
METHODS: CNV was generated by laser-induced rupture of Bruch's membrane as described above in Example 3. […] Choroidal flat mounts were analyzed as described above in Example 3.

[5] = test system: laser-induced choroidal neovascularization (CNV); assay: Laser-induced CNV in the mouse, oral gavage, prevention paradigm; format: in vivo
[6] = test system: existing laser-induced choroidal neovascularization (CNV); assay: Laser-induced CNV in the mouse, oral gavage, regression paradigm; format: in vivo; details: 3 mg/kg/day p.o. from day 7 after laser
[7] = test system: diabetes-induced retinal vascular permeability; assay: Diabetes-induced retinal vascular permeability in the STZ rat model, oral gavage; format: in vivo
Description: METHODS: Diabetes was induced in male Long-Evans rats with 65 mg/kg streptozotocin (STZ) after an overnight fast. Upon confirmation of diabetes (blood glucose >250 mg/dl), treatment was initiated by oral gavage. Non-diabetic (NDM) and diabetic (DM) rats received oral gavage of either vehicle or RTK inhibitor at 1.5 or 5 mg/kg/d BID. After 2 weeks, jugular vein catheters were implanted 1 day prior to experimentation for the infusion of indicator dye. Retinal vascular permeability, RVP, was measured using Evan's blue albumin permeation (45 mg/kg) after a 2 hour circulation period.

diabetic macular edema = details: topical ocular administration, Japanese patients with diabetic macular edema; cited from earlier work
exudative AMD = details: Phase III, patients treated, at 24 months, up to; cited from earlier work

## Cc1ccc(F)c(NC(=O)Nc2ccc(-c3cccc4[nH]nc(N)c34)cc2)c1 [Compound 86, N-[4-[3-amino-1H-indazol-4-yl]phenyl]-N′-(2-fluoro-5-methylphenyl)urea]
[1]; 0.1% RTKi
  % Inhibition (vs. vehicle-injected eye) of preretinal NV: 37%
[1]; 0.1% treated eyes, intravitreal
  efficacy against preretinal NV (in words): Efficacy was not observed
[1]; 0.3% RTKi
  Median NV (clockhour score): 0
  % Inhibition (vs. vehicle-injected eye) of preretinal NV: 100%
[1]; 0.6% RTKi
  Median NV (clockhour score): 0
  % Inhibition (vs. vehicle-injected eye) of preretinal NV: 100%
[1]; 1% RTKi
  Median NV (clockhour score): 0
  % Inhibition (vs. vehicle-injected eye) of preretinal NV: 100%
[1]; single intravitreal injection
  effect on preretinal NV (in words, FIG. 1): inhibits preretinal neovascularization (NV)
[2]; 3 mg/kg RTKi in PEG 400, p.o.
  % Inhibition (vs vehicle-injected eye) of preretinal NV: −1.4%
  Median NV (clockhour score): 7.5
[2]; 3 mg/kg/day p.o.
  decrease in NV (in words): did not have a significant decrease in NV
[2]; 20 mg/kg RTKi in PEG 400, p.o.
  % Inhibition (vs vehicle-injected eye) of preretinal NV: 100%
  Median NV (clockhour score): 0
[2]; 20 mg/kg/day p.o.
  inhibition of preretinal NV (in words): complete inhibition of preretinal NV
[2]; oral gavage
  effect on preretinal NV (in words, FIG. 2): prevents preretinal neovascularization (NV)
[3]; 0.3% RTKi, 5 ul intravitreal
  difference in CNV versus vehicle injected eyes (in words): marginal statistical difference
[3]; single intravitreal injection
  effect on laser-induced CNV (in words, FIG. 3): inhibits laser-induced choroidal neovascularization (CNV)
[4]; 5 μl 3% RTKi intravitreal at day 7
  reduction of median CNV area at 14 days compared to CNV present at 7 days post-laser: 41.0%
[4]; single intravitreal injection
  effect on existing laser-induced CNV (in words, FIG. 4): induces regression of existing laser-induced choroidal neovascularization (CNV)
[5]; 20 mg/kg/d p.o., prevention paradigm
  inhibition of CNV (in words): complete inhibition of CNV
[5]; oral gavage
  effect on laser-induced CNV (in words, FIG. 6): inhibits laser-induced choroidal neovascularization (CNV)
[6]
  regression of existing CNV (in words): did not show a significant regression of existing CNV
[7]; NDM treated at 5 mg/kg/d oral gavage
  RVP in non-diabetic rats (in words): unchanged
[7]; oral gavage, DM rats
  Blood glucose levels and body weights, DM control versus DM treatment groups: not different
[7]; oral, NDM and DM groups
  systemic or ERG side effects: no observed systemic or ERG side effects
  tolerability: well tolerated

## CC(C)NCC(O)COc1ccc(CCOCC2CC2)cc1 (centres unmarked) [betaxolol]
Diabetic macular edema
  effect on vision (in words): stabilized vision

B1: ranibizumab (antibody, chains of the INN, looked up, V domains shown)
VH: EVQLVESGGGLVQPGGSLRLSCAASGYDFTHYGMNWVRQAPGKGLEWVGWINTYTGEPTYAADFKRRFTFSLDTSKSTAYLQMNSLRAEDTAVYYCAKYPYYYGTSHWYFDVWGQGTLVTVSS
VL: DIQLTQSPSSLSASVGDRVTITCSASQDISNYLNWYQQKPGKAPKVLIYFTSSLHSGVPSRFSGSGSGTDFTLTISSLQPEDFATYYCQQYSTVPWTFGQGTKVEIK
modifications: Fab
Exudative AMD
  patients with improved visual acuity: 35-40%

— US20080153819A1, “METHODS FOR TREATING MACULAR EDEMA AND PATHOLOGIC OCULAR ANGIOGENESIS USING A NEUROPROTECTIVE AGENT AND A RECEPTOR TYROSINE KINASE INHIBITOR” (priority 2006, published 2008)
